Test system: HIV-infected subjects
Experiment: Safety and tolerability (TEAEs, ECG, laboratory) after repeated oral administration, phase 2a study
Format: in vivo, human
Method: Participants were assigned to one of eight groups; each group (with one exception) included eight subjects receiving either ABX464 (n = 6) or the corresponding placebo (n = 2) according to a randomization code. […] In the present study with HIV-infected subjects, the first dose administered was 25 mg, given once or 3 times a day over a 2- to 3-week period. This initial dose was therefore considered safe for assessment of the safety and tolerability of ABX464 after repeated oral administrations in subjects infected by HIV and determination of the potential effect on the HIV viral load.
The final dosing protocol for each of the eight groups was as follows: group 1, 25 mg every 3 days for 2 to 3 weeks under fasted conditions; group 2, 25 mg once a day (q.d.) for 2 to 3 weeks under fasted conditions; group 3, 50 mg once a day for 2 to 3 weeks under fasted conditions; group 4, 50 mg 3 times a day (t.i.d.) for 4 weeks under fed conditions; group 5, 75 mg once a day for 2 weeks under fed conditions; group 6, 100 mg once a day for 2 to 3 weeks under fasted conditions; group 7, 150 mg every 3 days for 2 to 3 weeks under fed conditions; and group 8, 150 mg once a day for 2 weeks under fed conditions. Per the study protocol, the treatment period was defined as 2 weeks. […] The decision to proceed to the next highest dose was determined by the data and safety monitoring board after review of the laboratory safety data, vital signs, ECGs, and adverse event reports from the group receiving the current dose after 2 weeks of treatment.
Subjects were hospitalized from the day prior to the first dose to at least the morning of day 2. They were orally dosed with 25-mg capsules of ABX464 with 240 ml water under fed or fasted conditions. According to the group, subjects were dosed with 1, 2, 3, 4, or 6 capsules to deliver 25 mg, 50 mg, 75 mg, 100 mg, or 150 mg product, respectively, or the same number of placebo capsules.
Safety assessments and laboratory tests were carried out according to the schedules described in Table S4 for groups dosed every day, every 3 days, and 3 times a day. Follow-up visits were scheduled for 7 days after the last dose and subsequently once every week in order to assess the elimination of the main ABX464 metabolite and to assess the viral load. Follow-up visits were terminated when the virus load was within 0.5 log of the baseline value or after 3 follow-up visits, whichever came first. Prior to the statistical analyses, AEs were coded using the Medical Dictionary for Regulatory Activities (MedDRA dictionary; last available version) in order to be tabulated by system organ class (SOC) and preferred term (PT). The AEs were analyzed according to the treatment emergence phase from the first study drug administration on day 1 up to 48 h after the last study drug administration. The number and percentage of subjects with at least one TEAE were tabulated by SOC and PT for each group and dose. The number of occurrences of TEAEs was also analyzed in the same way by SOC and PT for each group and dose, by grade of severity for each group and dose, and by level of causality to the study drug for each group and dose.

[1] = Group 2 (n = 6), 25 mg q.d., fasted, Moderate
[2] = Group 3 (n = 7), 50 mg q.d., fasted, Mild
[3] = Group 3 (n = 7), 50 mg q.d., fasted, Moderate
[4] = Group 4 (n = 7), 50 mg t.i.d., fed, Mild
[5] = Group 4 (n = 7), 50 mg t.i.d., fed, Moderate

FC(F)(F)Oc1ccc(Nc2ccc3cccc(Cl)c3n2)cc1 [ABX464]
1 (14.3) No. (%): Subjects experiencing at least one TEAE: Arthralgia [2] | Subjects experiencing at least one TEAE: Gastrointestinal disorders [2] | Subjects experiencing at least one TEAE: Headache [2] | Subjects experiencing at least one TEAE: Musculoskeletal and connective tissue disorders [2] | Subjects experiencing at least one TEAE: Nausea [2] | Subjects experiencing at least one TEAE: Nervous system disorders [2] | Subjects experiencing at least one TEAE: Vomiting [2] | Subjects experiencing at least one TEAE: Headache [3] | Subjects experiencing at least one TEAE: Nervous system disorders [3] | Subjects experiencing at least one TEAE: Total [3] | Subjects experiencing at least one TEAE: Arthralgia [4] | Subjects experiencing at least one TEAE: Neck pain [4] | Subjects experiencing at least one TEAE: Pain in extremity [4] | Subjects experiencing at least one TEAE: Vomiting [4] | Subjects experiencing at least one TEAE: Gastrointestinal disorders [5] | Subjects experiencing at least one TEAE: Total [5] | Subjects experiencing at least one TEAE: Upper abdominal pain [5]
0 (0.0) No. (%): Subjects experiencing at least one TEAE: Total [1] | Subjects experiencing at least one TEAE: Upper abdominal pain [1] | Subjects experiencing at least one TEAE: Vomiting [1] | Subjects experiencing at least one TEAE: Abdominal pain [2] | Subjects experiencing at least one TEAE: Back pain [2] | Subjects experiencing at least one TEAE: Diarrhea [2] | Subjects experiencing at least one TEAE: Flank pain [2] | Subjects experiencing at least one TEAE: Injury, poisoning, and procedural complications [2] | Subjects experiencing at least one TEAE: Neck pain [2] | Subjects experiencing at least one TEAE: Pain in extremity [2] | Subjects experiencing at least one TEAE: Sciatica, back pain [2] | Subjects experiencing at least one TEAE: Skin abrasion [2] | Subjects experiencing at least one TEAE: Upper abdominal pain [2] | Subjects experiencing at least one TEAE: Abdominal pain [3] | Subjects experiencing at least one TEAE: Arthralgia [3] | Subjects experiencing at least one TEAE: Back pain [3] | Subjects experiencing at least one TEAE: Diarrhea [3] | Subjects experiencing at least one TEAE: Flank pain [3] | Subjects experiencing at least one TEAE: Injury, poisoning, and procedural complications [3] | Subjects experiencing at least one TEAE: Musculoskeletal and connective tissue disorders [3] | Subjects experiencing at least one TEAE: Nausea [3] | Subjects experiencing at least one TEAE: Neck pain [3] | Subjects experiencing at least one TEAE: Pain in extremity [3] | Subjects experiencing at least one TEAE: Sciatica, back pain [3] | Subjects experiencing at least one TEAE: Skin abrasion [3] | Subjects experiencing at least one TEAE: Upper abdominal pain [3] | Subjects experiencing at least one TEAE: Vomiting [3] | Subjects experiencing at least one TEAE: Abdominal pain [4] | Subjects experiencing at least one TEAE: Diarrhea [4] | Subjects experiencing at least one TEAE: Flank pain [4] | Subjects experiencing at least one TEAE: Injury, poisoning, and procedural complications [4] | Subjects experiencing at least one TEAE: Nausea [4] | Subjects experiencing at least one TEAE: Sciatica, back pain [4] | Subjects experiencing at least one TEAE: Skin abrasion [4] | Subjects experiencing at least one TEAE: Abdominal pain [5] | Subjects experiencing at least one TEAE: Arthralgia [5] | Subjects experiencing at least one TEAE: Back pain [5] | Subjects experiencing at least one TEAE: Diarrhea [5] | Subjects experiencing at least one TEAE: Flank pain [5] | Subjects experiencing at least one TEAE: Headache [5] | Subjects experiencing at least one TEAE: Injury, poisoning, and procedural complications [5] | Subjects experiencing at least one TEAE: Musculoskeletal and connective tissue disorders [5] | Subjects experiencing at least one TEAE: Nausea [5] | Subjects experiencing at least one TEAE: Neck pain [5] | Subjects experiencing at least one TEAE: Nervous system disorders [5] | Subjects experiencing at least one TEAE: Pain in extremity [5] | Subjects experiencing at least one TEAE: Sciatica, back pain [5] | Subjects experiencing at least one TEAE: Skin abrasion [5] | Subjects experiencing at least one TEAE: Vomiting [5] | Subjects experiencing at least one TEAE: Abdominal pain (Group 5 (n = 6), 75 mg q.d., fed, Mild)
3 (42.9) No. (%): Subjects experiencing at least one TEAE: Gastrointestinal disorders [4] | Subjects experiencing at least one TEAE: Musculoskeletal and connective tissue disorders [4]
7 (100.0) No. (%): Subjects experiencing at least one TEAE: Total [4]
2 (28.6) No. (%): Subjects experiencing at least one TEAE: Total [2] | Subjects experiencing at least one TEAE: Back pain [4] | Subjects experiencing at least one TEAE: Headache [4] | Subjects experiencing at least one TEAE: Nervous system disorders [4] | Subjects experiencing at least one TEAE: Upper abdominal pain [4]

— paper PMC5487684, “Safety, Pharmacokinetics, and Antiviral Activity of a Novel HIV Antiviral, ABX464, in Treatment-Naive HIV-Infected Subjects in a Phase 2 Randomized, Controlled Study” (Antimicrobial Agents and Chemotherapy, 2017)
